Several values for one entry are separate records, joined by “and”; a condition that tells them apart may be missing. Identical values can stand only once.
Assay: xn = mol fraction of the nth substance listed

NCCO + O
Conditions	viscosity
293.15 K, 100 kPa, x2 = 0.46	21.2 mPa·s
293.15 K, 101 kPa, x1 = 0.03289	1.389 mPa·s
293.15 K, 101 kPa, x1 = 0.06899	1.903 mPa·s
293.15 K, 101 kPa, x1 = 0.069	1.88 mPa·s
293.15 K, 101 kPa, x1 = 0.0699	1.953 mPa·s
293.15 K, 101 kPa, x1 = 0.1124	3.125 mPa·s
293.15 K, 101 kPa, x1 = 0.1654	4.243 mPa·s
293.15 K, 101 kPa, x1 = 0.23	6.17 mPa·s
293.15 K, 101 kPa, x1 = 0.3043	9.893 mPa·s
293.15 K, 101 kPa, x1 = 0.47	16.6 mPa·s
293.15 K, 101 kPa, x1 = 0.6204	23.11 mPa·s
293.15 K, 101 kPa, x1 = 0.803	25.85 mPa·s
293.15 K, 101 kPa, x2 = 0.84	4.64 mPa·s
293.15 K, 101 kPa, x2 = 0.93	2.002 mPa·s
293.15 K, 101.3 kPa, x1 = 0.07	2.005 mPa·s
293.15 K, 101.3 kPa, x1 = 0.2	4.667 mPa·s and 7.345 mPa·s
293.15 K, 101.3 kPa, x1 = 0.3	11.29 mPa·s
293.15 K, 101.3 kPa, x1 = 0.4	15.77 mPa·s
293.15 K, 101.3 kPa, x1 = 0.5	21 mPa·s
293.15 K, 101.3 kPa, x1 = 0.7	24.02 mPa·s
298.14 K, 100 kPa, x1 = 0.112	2.464 mPa·s
298.15 K, 100 kPa, x1 = 0.069	1.621 mPa·s
298.15 K, 100 kPa, x1 = 0.11	2.415 mPa·s
298.15 K, 100 kPa, x1 = 0.112	2.467 mPa·s and 2.464 mPa·s
298.15 K, 101 kPa, x1 = 0.03289	1.224 mPa·s
298.15 K, 101 kPa, x1 = 0.06899	1.689 mPa·s
298.15 K, 101 kPa, x1 = 0.1121	2.44 mPa·s
298.15 K, 101 kPa, x1 = 0.1122	2.54 mPa·s
298.15 K, 101 kPa, x1 = 0.1124	2.714 mPa·s
298.15 K, 101 kPa, x1 = 0.1422	3.11 mPa·s
298.15 K, 101 kPa, x2 = 0.84	3.41 mPa·s and 3.76 mPa·s
298.15 K, 101 kPa, x2 = 0.8878	2.52 mPa·s
298.15 K, 101 kPa, x2 = 0.89	2.46 mPa·s
298.15 K, 101.3 kPa, x1 = 0.03	1.299 mPa·s
298.15 K, 101.3 kPa, x1 = 0.1	2.489 mPa·s
298.15 K, 101.3 kPa, x1 = 0.2	3.765 mPa·s and 5.547 mPa·s
298.15 K, 101.3 kPa, x1 = 0.3	9.062 mPa·s
298.15 K, 101.3 kPa, x1 = 0.4	12.6 mPa·s
298.15 K, 101.3 kPa, x1 = 0.5	16.29 mPa·s
298.15 K, 101.3 kPa, x1 = 0.7	19.9 mPa·s
303.15 K, 100 kPa, x1 = 0.1	1.91 mPa·s
303.15 K, 100 kPa, x1 = 0.2	3.87 mPa·s
303.15 K, 100 kPa, x1 = 0.3	6.67 mPa·s
303.15 K, 100 kPa, x1 = 0.4	9.68 mPa·s
303.15 K, 100 kPa, x1 = 0.5	12.3 mPa·s
303.15 K, 100 kPa, x1 = 0.6	14 mPa·s
303.15 K, 100 kPa, x2 = 0.46	13.1 mPa·s
303.15 K, 101 kPa, x1 = 0.03289	1.087 mPa·s
303.15 K, 101 kPa, x1 = 0.06899	1.482 mPa·s
303.15 K, 101 kPa, x1 = 0.0699	1.477 mPa·s and 1.177 mPa·s
303.15 K, 101 kPa, x1 = 0.1122	2.19 mPa·s
303.15 K, 101 kPa, x1 = 0.1124	2.397 mPa·s
303.15 K, 101 kPa, x1 = 0.1422	2.65 mPa·s
303.15 K, 101 kPa, x1 = 0.1654	3.059 mPa·s
303.15 K, 101 kPa, x1 = 0.3043	6.608 mPa·s
303.15 K, 101 kPa, x1 = 0.6204	13.65 mPa·s
303.15 K, 101 kPa, x1 = 0.803	15.72 mPa·s
303.15 K, 101 kPa, x2 = 0.84	3.27 mPa·s
303.15 K, 101 kPa, x2 = 0.93	1.496 mPa·s
303.15 K, 101.3 kPa, x1 = 0.03	1.121 mPa·s
303.15 K, 101.3 kPa, x1 = 0.07	1.501 mPa·s
303.15 K, 101.3 kPa, x1 = 0.1	2.195 mPa·s
303.15 K, 101.3 kPa, x1 = 0.2	3.279 mPa·s and 4.96 mPa·s
303.15 K, 101.3 kPa, x1 = 0.3	7.417 mPa·s
303.15 K, 101.3 kPa, x1 = 0.4	10.31 mPa·s
303.15 K, 101.3 kPa, x1 = 0.5	13.15 mPa·s
308.15 K, 101 kPa, x1 = 0.03289	0.973 mPa·s
308.15 K, 101 kPa, x1 = 0.06899	1.31 mPa·s
308.15 K, 101 kPa, x1 = 0.1124	2.143 mPa·s
313 K, 101 kPa, x1 = 0.11	1.57 mPa·s
313.15 K, 100 kPa, x1 = 0.1	1.48 mPa·s
313.15 K, 100 kPa, x2 = 0.46	8.59 mPa·s
313.15 K, 101 kPa, x1 = 0.03289	0.878 mPa·s
313.15 K, 101 kPa, x1 = 0.11	1.66 mPa·s
313.15 K, 101 kPa, x1 = 0.1124	1.95 mPa·s
313.15 K, 101 kPa, x1 = 0.1422	1.99 mPa·s
313.15 K, 101 kPa, x1 = 0.3043	4.654 mPa·s
313.15 K, 101 kPa, x1 = 0.803	10.54 mPa·s
313.15 K, 101 kPa, x2 = 0.84	2.3 mPa·s
313.15 K, 101 kPa, x2 = 0.93	1.163 mPa·s
313.15 K, 101.3 kPa, x1 = 0.03	0.909 mPa·s
313.15 K, 101.3 kPa, x1 = 0.2	3.423 mPa·s
313.15 K, 101.3 kPa, x1 = 0.3	5.291 mPa·s
313.15 K, 101.3 kPa, x1 = 0.4	7.024 mPa·s
313.15 K, 101.3 kPa, x1 = 0.5	8.95 mPa·s
318.15 K, 101 kPa, x1 = 0.03289	0.798 mPa·s
318.15 K, 101 kPa, x1 = 0.06899	1.048 mPa·s
323 K, 101 kPa, x1 = 0.11	1.22 mPa·s
323.15 K, 100 kPa, x2 = 0.46	5.92 mPa·s
323.15 K, 101 kPa, x1 = 0.03289	0.731 mPa·s
323.15 K, 101 kPa, x1 = 0.06899	0.948 mPa·s
323.15 K, 101 kPa, x1 = 0.069	0.94 mPa·s
323.15 K, 101 kPa, x1 = 0.0699	0.973 mPa·s
323.15 K, 101 kPa, x1 = 0.1654	1.76 mPa·s
323.15 K, 101 kPa, x1 = 0.23	2.57 mPa·s
323.15 K, 101 kPa, x1 = 0.3043	3.401 mPa·s
323.15 K, 101 kPa, x1 = 0.47	5.37 mPa·s
323.15 K, 101 kPa, x1 = 0.6204	6.592 mPa·s
323.15 K, 101 kPa, x1 = 0.803	7.219 mPa·s
323.15 K, 101 kPa, x2 = 0.84	1.78 mPa·s
323.15 K, 101 kPa, x2 = 0.89	1.23 mPa·s
323.15 K, 101 kPa, x2 = 0.93	0.942 mPa·s
323.15 K, 101.3 kPa, x1 = 0.03	0.715 mPa·s
323.15 K, 101.3 kPa, x1 = 0.07	0.945 mPa·s
323.15 K, 101.3 kPa, x1 = 0.1	1.338 mPa·s
323.15 K, 101.3 kPa, x1 = 0.2	1.782 mPa·s and 2.566 mPa·s
323.15 K, 101.3 kPa, x1 = 0.3	3.771 mPa·s
323.15 K, 101.3 kPa, x1 = 0.4	5.055 mPa·s
323.15 K, 101.3 kPa, x1 = 0.5	6.273 mPa·s
323.15 K, 101.3 kPa, x1 = 0.7	7.09 mPa·s

From the CheMixHub viscosity set
